Like-named read-outs stand apart in the source and are kept apart here.
Key:
[1] = system: green rice leafhopper which had acquired resistance to chemicals; experiment: Rice seedling dip test, mortality of resistant green rice leafhopper larvae (Test Example 1); type: in vivo; details: Nephotettix cincticeps, read-out: Mortality (%), 500 ppm
Text: (§1) Five rice seedlings having a height of about 7 cm were dipped, for 10 seconds, into aqueous dilutions of wettable powder each containing a predetermined concentration of each sample compound, prepared in accordance with the procedure as described in Formulation Example 1. After air drying, the roots of the five rice seedlings were wrapped with sanitary cotton dampened with water, and placed in a glass cylinder having a diameter of 3 cm and a height of 20 cm. Ten second instar larvae of a green rice leafhopper which had acquired resistance to chemicals were released into each glass cylinder. The cylinder was allowed to stand in a room maintained at 26° C. The mortality of the larvae was examined 48 hours after treatment.

[2] = system: brown rice planthopper which had acquired resistance to chemicals; experiment: Rice seedling dip test, mortality of resistant brown rice planthopper larvae (Test Example 2); type: in vivo; details: read-out: Mortality (%), 500 ppm
Text: as §1, with “brown” for “green”, “planthopper” for “leafhopper”

[3] = 500 ppm wettable powder dilution, rice seedlings dipped 10 seconds, second instar larvae, 48 hours after treatment, 26° C.

Structure (SMILES) | mortality at 500 ppm [1, 3] | mortality at 500 ppm [2, 3] | mortality at 500 ppm ([1]; 48 h) | mortality at 500 ppm ([2]; 48 h)
CN1CNC(=N[N+](=O)[O-])N(Cc2ccc(Cl)nc2)C1 [compound 1, 1-(2-chloro-5-pyridylmethyl)-5-methyl-2-nitroiminohexahydro-1,3,5-triazine] | 100% | 100% |  | 
CCN1CNC(=N[N+](=O)[O-])N(Cc2ccc(Cl)nc2)C1 [Compound No. 2, 1-(2-chloro-5-pyridylmethyl)-5-ethyl-2-nitroiminohexahydro-1,3,5-triazine] | 100% | 100% |  | 
CN1CN(C)C(=N[N+](=O)[O-])N(Cc2ccc(Cl)nc2)C1 [compound 5, 1-(2-chloro-5-pyridylmethyl)-3,5-dimethyl-2-nitroiminohexahydro-1,3,5-triazine] | 100% | 100% |  | 
Cc1cc(OP(C)(C)=S)ccc1[N+](=O)[O-] [Comparative Compound, reference compound] |  |  | 70% | 65%
CN1CN(C)C(=N[N+](=O)[O-])N(Cc2cnc(Cl)s2)C1 [compound 6, 1-(2-chloro-5-thiazolylmethyl)-3,5-dimethyl-2-nitroiminohexahydro-1,3,5-triazine] | 100% | 100% |  | 

From patent US20010046994A1, “Hexahydrotriazine compounds and insecticides” (priority 1989, published 2001)
